These are literature values, as cited in US6479068B1, “Therapeutic nutrient regimen for alleviating mucositis, stomatitis and cachexia in oncology patients” (Baxter International Inc., priority 2000, dated 2002).

For the data set the following is noted: in vivo.

For the compound `[Se]` [Selenium, selenium], the absorption is given as 50-100%.
